Structures are written as SMILES.

Test [1] has as its system human prostate cancer LNCaP cells. The test can be described thus: Cytotoxic action on cancer cells (WST-8, 96 hr). The class given is cell-based. Particulars: Homo sapiens, LNCaP, 96 h, read-out: LNCaP cytotoxic activity: IC50. On the procedure:
The cytotoxic action of the compound of the present invention against human cancer cells was evaluated in vitro. In this experiment, (+)-JQ1 (Nature volume 468, pages 1067-1073 (23 Dec. 2010)) known to have an inhibitory activity on the binding of BRD4 protein and a ligand therefor was used as a positive control drug. Respective cells were suspended in 10% FBS/RPMI1640, seeded in a 96 well plate and cultured at 5% CO2, 37° C. overnight. A test compound dissolved in DMSO was diluted with 10% FBS/RPMI1640 and added and the cells were further cultured for 96 hr. After culturing, the viable cell number was measured using a cell number measurement WST-8 kit (Kishida Chemical Co., Ltd.). As a control, the measurement was performed under conditions free of the test compound. The cytotoxic activity of the compound of the present invention against human prostate cancer LNCaP cells is shown in IC50 value in Table 1. […] It was calculated from the straight line connecting the cell survival rate at two points enclosing the 50% cell survival rate and the compound concentration. In addition, the cytotoxic activity against respective cancer cells of human acute myeloid leukemia MV-4-11 cell, human chronic myeloid leukemia K562 cell, human multiple myeloma MM.1S cell, human diffuse large B-cell lymphoma SU-DHL-6 cell, human T-cell leukemia Jurkat cells, human Burkitt lymphoma Raji cell, human castration-resistant prostate cancer PC-3 cell, human ovarian cancer A2780 cell, human bladder cancer 5637 cell, human breast cancer ZR-75-1 cell, human triple negative breast cancer MDA-MB-231 cell, human uterine sarcoma MES-SA cell, human gastric cancer SNU-16 cell, human non-small cell lung cancer NCI-H1975 cell, human small cell lung cancer NCI-H82 cell, human large cell lung cancer NCI-H460 cell, human colorectal cancer HCT116 cell, human glioma U-87 MG cell, human pancreatic cancer AsPC-1 cell, and human liver cancer Hep G2 cell is shown in IC50 value in Table 2.

Test [2] addresses BRD4 protein (Homo sapiens (Human), UniProt O60885). Kind of test: BRD4 protein degradation inducing action in cancer cells (immunofluorescence, Operetta). The class given is cell-based. Particulars: LNCaP cells, 6 hr treatment, fluorescence intensity. On the procedure: The degradation inducing action of the compound of the present invention on BRD4 protein in cancer cells was evaluated in vitro using human prostate cancer LNCaP cells. LNCaP cells were suspended in 10% FBS/RPMI1640, seeded in a 96 well Cell carrier plate (Perkin Elmer) and cultured at 5% CO2, 37° C. overnight. A test compound dissolved in DMSO was diluted with 10% FBS/RPMI1640 and added and the cells were further cultured for 6 hr. After culturing, the cells were immobilized with 4% para-formaldehyde/PBS and further subjected to a permeation treatment with 0.25% Triton X-100/PBS. Thereafter, the cells were blocked with 10% BSA/PBS, a solution containing Anti-Brd4 antibody (Abcam) or Anti-BRD4 (Sigma-Aldrich) as the primary antibody was added and the cells were incubated at 4° C. overnight. Thereafter, as the secondary antibody, a solution containing secondary antibody A shown below was added to Example compounds 1-190, 223 and 224, and a solution containing secondary antibody B shown below was added to Example compounds 191-222, and 0.5 μg/mL Hoechst 33342 (Sigma-Aldrich) and 14 μM Acti-Stain 555 Fluorescent Phalloidin (Cytoskeleton) were further added. After incubation for 1 hr, BRD4 protein amount was measured by Operetta (Perkin Elmer) as fluorescence intensity.
• Anti-Rabbit IgG(H+L), F(ab′)2 Fragment (Alexa Fluor 488 Conjugate) (Cell Signaling Technology), fluorescence intensity was measured at excitation: 495 nm, emission: 519 nm. Secondary Antibody B • Goat anti-Rabbit IgG(H+L) Cross-Adserbed Secondary Antibody (Alexa Fluor 546) (Thermo Fisher Scientific) fluorescence intensity was measured at excitation: 560 nm, emission: 572 nm.
The BRD4 protein degradation inducing activity of the compound of the present invention in LNCaP cells is shown in DC50 value in Table 3. The DC50 value is a concentration of the compound showing 50% fluorescence intensity when the fluorescence intensity thereof under compound untreated condition is 100%. It was calculated from the straight line connecting the fluorescence intensity at two points enclosing the 50% fluorescence intensity and the compound concentration.

One may read the IC50 as the point on the concentration scale where inhibition reaches its midpoint. The term DC50 denotes the concentration giving 50% degradation. As for `COC(=O)C[C@@H]1N=C(c2ccc(N3CC[C@@H](OCC(=O)N[C@H](C(=O)N4C[C@H](O)C[C@H]4C(=O)N[C@@H](C)c4ccc(-c5scnc5C)cc4)C(C)(C)C)C3)cc2)c2c(sc(C)c2C)-n2c(C)nnc21` [Example Compound 69, methyl [(6S)-4-(4-{(3R)-3-[2-({(2S)-1-[(2S,4R)-4-hydroxy-2-({(1S)-1-[4-(4-methyl-1,3-thiazol-5-yl)phenyl]ethyl}carbamoyl)pyrrolidin-1-yl]-3,3-dimethyl-1-oxobutan-2-yl}amino)-2-oxoethoxy]pyrrolidin-1-yl}phenyl)-2,3,9-trimethyl-6H-thieno[3,2-f][1,2,4]triazolo[4,3-a][1,4]diazepin-6-yl]acetate], the half-maximal inhibitory concentration (IC50) in test [1] came out at 0.33 nM. Besides, in test [2], half-maximal degradation (DC50) was put at 0.15 nM.

Take `COC(=O)C[C@@H]1N=C(c2ccc(-c3ccc(C(=O)N[C@H](C(=O)N4C[C@H](O)C[C@H]4C(=O)NCc4ccc(-c5scnc5CO)cc4)C(C)(C)C)cc3)cc2)c2c(sc(C)c2C)-n2c(C)nnc21` [Example 220, methyl [(6S)-4-(4′-{[(2S)-1-{(2S,4R)-4-hydroxy-2-[({4-[4-(hydroxymethyl)-1,3-thiazol-5-yl]phenyl}methyl)carbamoyl]pyrrolidin-1-yl}-3,3-dimethyl-1-oxobutan-2-yl]carbamoyl}[1,1′-biphenyl]-4-yl)-2,3,9-trimethyl-6H-thieno[3,2-f][1,2,4]triazolo[4,3-a][1,4]diazepin-6-yl]acetate]: the IC50 in test [1] was 0.92 nM. Further, the DC50 in test [2] amounted to 0.92 nM.

For `COC(=O)C[C@@H]1N=C(c2ccc(-c3ccc(O[C@H]4C[C@@H](C(=O)N[C@H](C(=O)N5C[C@H](O)C[C@H]5C(=O)N[C@@H](C)c5ccc(-c6scnc6C)cc5)C(C)(C)C)C4)nc3)cc2)c2c(sc(C)c2C)-n2c(C)nnc21` [Example 162, methyl {(6S)-4-[4-(6-{[cis-3-({(2S)-1-[(2S,4R)-4-hydroxy-2-({(1S)-1-[4-(4-methyl-1,3-thiazol-5-yl)phenyl]ethyl}carbamoyl)pyrrolidin-1-yl]-3,3-dimethyl-1-oxobutan-2-yl}carbamoyl)cyclobutyl]oxy}pyridin-3-yl)phenyl]-2,3,9-trimethyl-6H-thieno[3,2-f][1,2,4]triazolo[4,3-a] [1,4]diazepin-6-yl}acetate], the IC50 in test [1] amounted to 0.37 nM. Besides, it took 0.3 nM to reach half-maximal degradation in test [2] (DC50).

Turning to `COC(=O)C[C@@H]1N=C(c2ccc(-c3ccc(C(=O)N[C@H](C(=O)N4C[C@H](O)C[C@H]4C(=O)NCc4ccc(-c5scnc5C)cc4)C(C)(C)C)c(Cl)c3)cc2)c2c(sc(C)c2C)-n2c(C)nnc21` [Example 190, methyl {(6S)-4-[3′-chloro-4′-({(2S)-1-[(2S,4R)-4-hydroxy-2-({[4-(4-methyl-1,3-thiazol-5-yl)phenyl]methyl}carbamoyl)pyrrolidin-1-yl]-3,3-dimethyl-1-oxobutan-2-yl}carbamoyl)[1,1′-biphenyl]-4-yl]-2,3,9-trimethyl-6H-thieno[3,2-f][1,2,4]triazolo[4,3-a][1,4]diazepin-6-yl}acetate], in test [1], the IC50 stood at 0.13 nM. The DC50 in test [2] stood at 0.17 nM.

Regarding `COC(=O)C[C@@H]1N=C(c2ccc(-c3ccc4oc(C(=O)N[C@H](C(=O)N5C[C@H](O)C[C@H]5C(=O)NCc5ccc(-c6scnc6C)cc5)C(C)(C)C)nc4c3)cc2)c2c(sc(C)c2C)-n2c(C)nnc21` [Example 171, methyl [(6S)-4-{4-[2-({(2S)-1-[(2S,4R)-4-hydroxy-2-({[4-(4-methyl-1,3-thiazol-5-yl)phenyl]methyl}carbamoyl)pyrrolidin-1-yl]-3,3-dimethyl-1-oxobutan-2-yl}carbamoyl)-1,3-benzoxazol-5-yl]phenyl}-2,3,9-trimethyl-6H-thieno[3,2-f][1,2,4]triazolo[4,3-a][1,4]diazepin-6-yl]acetate], the IC50 in test [1] was determined as 0.08 nM. Further, the DC50 in test [2] turned out to be 0.16 nM.

Turning to `COC(=O)C[C@@H]1N=C(c2ccc(-c3ccc(C(=O)N[C@H](C(=O)N4C[C@H](O)C[C@H]4C(=O)N[C@@H](CO)c4ccc(-c5scnc5C)cc4)C(C)(C)C)cc3)cc2)c2c(sc(C)c2C)-n2c(C)nnc21` [Example 215, methyl {(6S)-4-[4′-({(2S)-1-[(2S,4R)-4-hydroxy-2-({(1R)-2-hydroxy-1-[4-(4-methyl-1,3-thiazol-5-yl)phenyl]ethyl}carbamoyl)pyrrolidin-1-yl]-3,3-dimethyl-1-oxobutan-2-yl}carbamoyl)[1,1′-biphenyl]-4-yl]-2,3,9-trimethyl-6H-thieno[3,2-f][1,2,4]triazolo[4,3-a][1,4]diazepin-6-yl}acetate], in test [1], the IC50 was found to be 0.31 nM. Moreover, in test [2], the DC50 came to 0.33 nM.

As to `COC(=O)C[C@@H]1N=C(c2ccc(-c3ccc(CCC(=O)N[C@H](C(=O)N4C[C@H](O)C[C@H]4C(=O)N[C@@H](C)c4ccc(-c5scnc5C)cc4)C(C)(C)C)s3)cc2)c2c(sc(C)c2C)-n2c(C)nnc21` [Example 188, methyl [(6S)-4-(4-{5-[3-({(2S)-1-[(2S,4R)-4-hydroxy-2-({(1S)-1-[4-(4-methyl-1,3-thiazol-5-yl)phenyl]ethyl}carbamoyl)pyrrolidin-1-yl]-3,3-dimethyl-1-oxobutan-2-yl}amino)-3-oxopropyl]thiophen-2-yl}phenyl)-2,3,9-trimethyl-6H-thieno[3,2-f][1,2,4]triazolo[4,3-a][1,4]diazepin-6-yl]acetate], the IC50 in test [1] is 0.042 nM. This compound also displayed a DC50 in test [2] of 0.26 nM.

Take `COC(=O)C[C@@H]1N=C(c2ccc(-c3ccc4c(c3)N(CC(=O)N[C@H](C(=O)N3C[C@H](O)C[C@H]3C(=O)N[C@@H](C)c3ccc(-c5scnc5C)cc3)C(C)(C)C)C(=O)CC4)cc2)c2c(sc(C)c2C)-n2c(C)nnc21` [Example 146, methyl [(6S)-4-(4-{1-[2-({(2S)-1-[(2S,4R)-4-hydroxy-2-({(1S)-1-[4-(4-methyl-1,3-thiazol-5-yl)phenyl]ethyl}carbamoyl)pyrrolidin-1-yl]-3,3-dimethyl-1-oxobutan-2-yl}amino)-2-oxoethyl]-2-oxo-1,2,3,4-tetrahydroquinolin-7-yl}phenyl)-2,3,9-trimethyl-6H-thieno[3,2-f] [1,2,4]triazolo[4,3-a][1,4]diazepin-6-yl]acetate]: the IC50 in test [1] amounted to 0.44 nM. The compound also showed a 50% degradation concentration (DC50) in test [2] of 0.46 nM.

For `COC(=O)C[C@@H]1N=C(c2ccc(-c3ccc(OCC(=O)N[C@H](C(=O)N4C[C@H](O)C[C@H]4C(=O)N[C@@H](C)c4ccc(-c5scnc5C)cc4)C(C)(C)C)c(C(F)(F)F)c3)cc2)c2c(sc(C)c2C)-n2c(C)nnc21` [Example Compound 100, methyl [(6S)-4-{4′-[2-({(2S)-1-[(2S,4R)-4-hydroxy-2-({(1S)-1-[4-(4-methyl-1,3-thiazol-5-yl)phenyl]ethyl}carbamoyl)pyrrolidin-1-yl]-3,3-dimethyl-1-oxobutan-2-yl}amino)-2-oxoethoxy]-3′-(trifluoromethyl)[1,1′-biphenyl]-4-yl}-2,3,9-trimethyl-6H-thieno[3,2-f] [1,2,4]triazolo[4,3-a][1,4]diazepin-6-yl]acetate], in test [1], the IC50 was 0.67 nM. The DC50 in test [2] came out at 0.21 nM.

These data come from patent US11542273B2, “Amide compound having bet proteolysis-inducing action and medicinal application thereof” (MITSUBISHI TANABE PHARMA CORPORATION, priority 2018, dated 2023).
